Ends that are not written are not given here.
Legend:
[1] = target: CDK2 (Homo sapiens, UniProt P24941); assay: Surface Plasmon Resonance (SPR) peptide binding assay; conditions: for Ka1 / Ka2 / Kd1 / Kd2: two-state model
Method: Data were fitted globally by using the standard two state models provided by Biacore T200 Software v2.0.
Single-cycle kinetics experiments were performed with a T200 apparatus. The experiments were done on S-CM5 sensor chips coated with 6000 RU of CDK2. A flow cell left blank was used for double-referencing of the sensorgrams. Binding experiments were performed in standard PBS-P buffer with 60 µM ATP as running buffer (10 mM NaH2PO4/Na2HPO4, 150 mM NaCl, 60 µM ATP and 0.05% surfactant P20, pH 7.4) at 25°C with a flow rate of 30 µl/min. The peptide samples were prepared in the running buffer, and were injected.
Single-cycle kinetics assay were performed using the standard SCK method implemented by the T200 Control Software. In single-cycle analysis, the analyte is injected with increasing concentrations in a single cycle. The surface is not regenerated between injections. A blank injection of buffer only was subtracted from each curve, and reference sensorgrams were subtracted from experimental sensorgrams to yield curves representing specific binding. Data were fitted globally by using the standard two-state model provided by T200 Software v2.0. The data shown are representative of at least three independent experiments.

[2] = target: T1, CDK2/Cyclin complex (Homo sapiens, UniProt P24941); assay: Kinase assay of immunoprecipitated Cyclin E samples with Histone H1; assay type: biochemical; conditions: 10 µM peptide, Histone H1 substrate
T1 construct: endogenous in cells; host or cells: C81 (HTLV-1-infected T-cell line), size-exclusion fractions 28-31 of whole cell lysate
Method: (§1) B) Immunoprecipitated Cyclin E samples in the presence of peptides were assessed for kinase activity. Histone H1 (1 µg/reaction) was added to each reaction tube along with 2 µl of (γ-32P) ATP (3000 Ci/mmol). Reactions were incubated at 37°C for 30 min and stopped by the addition Laemmli buffer. The samples were separated on a 4–20% Tris–Glycine gel. Samples were ran on a gel, dried, and exposed to a PhosphorImager cassette and analyzed using Molecular Dynamic’s ImageQuant Software.
The levels of phosphorylation of H1 are shown in the presence of the six designed peptides.
Immunoprecipitated samples were assessed for kinase activity. After the final TNE50+0.1% NP-40 wash, beads were washed with kinase buffer (50 mM HEPES, 10 mM MgCl2, 5 mM MnCl2, 1 mM DTT, 50 mM NaF, 0.2 mM Na3VO4 and one complete tablet of protease cocktail inhibitor/50 ml buffer) to equilibrate the reaction. Histone H1 (1 µg) was added to each reaction tube along with the γ-32P ATP (2 µl at 3000 Ci/mmol). Reactions were incubated at 37°C for 30 min and stopped by the addition of 15 µl Laemmli buffer. The samples were separated by reducing SDS-PAGE on a 4–20% Tris–Glycine gel. Gels were stained with Coomassie blue, destained, and then dried for 2 hours. Following drying, the gels were exposed to a PhosphorImager cassette and analyzed utilizing Molecular Dynamic’s ImageQuant Software.

[3] = target: T2, CDK2/Cyclin E complex (Homo sapiens, UniProt P24941); assay: Cyclin E immunoprecipitation and Western blot for CDK2 (complex dissociation); assay type: biochemical; conditions: 10 µM peptide, C81 fractionated cell extracts
T2 construct: endogenous in cells; host or cells: C81 (HTLV-1-infected T-cell line), size-exclusion fractions 28-31 of whole cell lysate
Method: This is discussed below by the kinase activity experiment.
as §1
C81 whole cell lysate (5 mg) was fractionated on a Superose 6 HR 10/30 column (Amersham Biosciences, Piscataway, NJ) in Buffer D (20 mM HEPES (pH 7.9), 0.05 M KCl, 0.2 mM EDTA, 0.5 mM PMSF, 0.05 DTT, and 20% Glycerol). Flow-through was collected at 0.5 ml for 50 fractions.
The pooled C81 extracts (250 µg each) were combined with 10 µM of each respective peptide. Cyclin E antibody (Santa Cruz, sc-198) was added to each reaction tube (10 µl, 2 µg), the reaction mixture was brought up to 500 µl with TNE50+0.1% NP-40 (100 mM Tris, pH 8.0; 50 mM NaCl; 1 mM EDTA, 0.1% Nonidet P-40) and was allowed to incubate while rotating overnight at 4°C. α-IgG was added to extract as a negative control, and an IP was performed in the absence of competing peptide, acting as a positive control. […]

Row | Ka1 ([1]; with 60 µM ATP) | Ka1 ([1]; without ATP) | Kd ([1]; without ATP) | Compound | mechanism of binding (SPR response curve) [1] | Ka2 ([1]; with 60 µM ATP) | Kd1 ([1]; with 60 µM ATP) | Kd2 ([1]; with 60 µM ATP) | Ka2 ([1]; without ATP) | Kd1 ([1]; without ATP) | Kd2 ([1]; without ATP) | kinase activity (phosphorylation of H1) [2] | dissociation of CDK2 from the CDK2/Cyclin complex [3]
1 | 612.9 ± 13.0 M⁻¹ s⁻¹ | 434.1 ± 6.6 M⁻¹ s⁻¹ | – | CC(C)C[C@H](NC(=O)[C@H](C)NC(=O)[C@H](C)NC(=O)[C@@H](N)CC(=O)O)C(=O)N[C@H](C(=O)O)[C@@H](C)O [DAALT, NH2-D-A-A-L-T-OH] | fast binding and fast dissociation | 34.6±1.0 E-3 1/Ms | 101.2±4.3 E-3 1/s | 10.1±0.1 E-3 1/s | 14.1±0.4 E-4 1/Ms | 23.2±0.4 E-3 1/s | 1.3±0.6 E-5 1/s | clear loss of kinase activity | dissociation of CDK2 from the CDK2/Cyclin complex
2 | – | – | – | CC(C)C[C@H](NC(=O)[C@H](C)NC(=O)[C@H](C)NC(=O)[C@@H](N)Cc1ccc(O)cc1)C(=O)N[C@@H](CCC(N)=O)C(=O)O [YAALQ, NH2-Y-A-A-L-Q-OH] | fast binding and fast dissociation | 12.3±0.3 E-3 1/Ms | 53.9±1.4 E-3 1/s | 1.6±0.1 E-3 1/s | 9.0±0.3 E-3 1/Ms | 84.0±2.7 E-3 1/s | 2.2±0.1 E-3 1/s | clear loss of kinase activity | weak complex disassociation
3 | – | – | 8 µM | LAALS [LAALS, reference compound] | – | – | – | – | – | – | – | – | –

Reference: PMC4188581 (PLoS ONE, 2014)
